These results are taken from patent US9540391B2, “Isomannide derivatives as inhibitors of soluble epoxide hydrolase” (SANOFI, priority 2013, dated 2017).

The target in this test is T1, recombinant sEH (Homo sapiens, UniProt P34913).
T1 construct: made in house; host or cells: Sf9 insect cells
T1 sequence (P34913 1-555): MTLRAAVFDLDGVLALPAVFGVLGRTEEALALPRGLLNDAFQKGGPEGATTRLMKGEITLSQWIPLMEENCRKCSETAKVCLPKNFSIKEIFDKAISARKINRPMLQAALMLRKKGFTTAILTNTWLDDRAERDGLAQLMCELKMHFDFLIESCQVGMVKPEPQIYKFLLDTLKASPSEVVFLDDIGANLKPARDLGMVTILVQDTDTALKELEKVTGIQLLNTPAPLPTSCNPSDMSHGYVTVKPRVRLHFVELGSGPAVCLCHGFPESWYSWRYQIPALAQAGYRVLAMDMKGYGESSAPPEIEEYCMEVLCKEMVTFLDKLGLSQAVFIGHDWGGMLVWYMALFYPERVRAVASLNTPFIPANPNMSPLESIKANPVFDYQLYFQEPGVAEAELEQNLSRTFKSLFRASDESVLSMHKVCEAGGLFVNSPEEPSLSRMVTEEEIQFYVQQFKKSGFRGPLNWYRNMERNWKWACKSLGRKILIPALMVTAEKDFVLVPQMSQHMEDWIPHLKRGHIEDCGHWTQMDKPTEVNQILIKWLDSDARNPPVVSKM
Put plainly: biochemical screening assay for inhibition of soluble epoxide hydrolase (fluorometric, Phome substrate). The procedure, abridged: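 Human sEH from Sf9 cells (2 nM final) was pre-incubated 15 min at 30 °C with compound (0.0001–10 μM), then reacted 60 min at 30 °C with 5 μM Phome in 25 mM Hepes/0.01% albumin. Fluorescence of released 6-methoxy-2-naphthaldehyde was read before substrate and at end; IC50 from % inhibition.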

Structures can show the parent of a compound that is named as a salt.

As for `O=C(NC1CCCCC1)N[C@H]1CO[C@H]2[C@@H]1OC[C@@H]2Oc1ccccc1F` [Example 95, 1-Cyclohexyl-3-[(3S,3aR,6S,6aS)-6-(2-fluoro-phenoxy)-hexahydro-furo[3,2-b]furan-3-yl]-urea], the IC50 amounted to 5 nM.

As for `O=C(NC1CCCCC1)N[C@H]1CO[C@H]2[C@@H]1OC[C@@H]2Oc1cccnc1` [Example 96, 1-Cyclohexyl-3-[(3S,3aR,6S,6aS)-6-(pyridin-3-yloxy)-hexahydro-furo[3,2-b]furan-3-yl]-urea; trifluoroacetate], the IC50 came to 4 nM.

For the compound `O=C(NC1CCCCC1)N[C@H]1CO[C@H]2[C@@H]1OC[C@@H]2Oc1cccc(Cl)c1Cl` [Example 97, 1-Cyclohexyl-3-[(3S,3aR,6S,6aS)-6-(2,3-dichloro-phenoxy)-hexahydro-furo[3,2-b]furan-3-yl]-urea], the IC50 amounted to 3 nM.

Take `O=C(NC1CCCCC1)N[C@H]1CO[C@H]2[C@@H]1OC[C@@H]2Oc1ccccc1Cl` [Example 98, 1-[(3S,3aR,6S,6aS)-6-(2-Chloro-phenoxy)-hexahydro-furo[3,2-b]furan-3-yl]-3-cyclohexyl-urea]: the IC50 was 2 nM.

On to `O=C(NC1CCCCC1)N[C@H]1CO[C@H]2[C@@H]1OC[C@@H]2Oc1ccc2cc(Br)ccc2c1` [Example 99, 1-[(3S,3aR,6S,6aS)-6-(6-Bromo-naphthalen-2-yloxy)-hexahydro-furo-[3,2-b]furan-3-yl]-3-cyclohexyl-urea], for which the IC50 amounted to 12 nM.

As to `O=C(NC1CCCCC1)N[C@H]1CO[C@H]2[C@@H]1OC[C@@H]2Oc1cccc(N2CCOCC2)c1` [Example 100, 1-Cyclohexyl-3-[(3S,3aR,6S,6aS)-6-(3-morpholin-4-yl-phenoxy)-hexa-hydro-furo[3,2-b]furan-3-yl]-urea], the IC50 came out at 2 nM.

For the compound `O=C(NC1CCCCC1)N[C@H]1CO[C@H]2[C@@H]1OC[C@@H]2Oc1ccc(C(F)(F)F)cc1` [Example 101, 1-Cyclohexyl-3-[(3S,3aR,6S,6aS)-6-(4-trifluoromethyl-phenoxy)-hexa-hydro-furo[3,2-b]furan-3-yl]-urea], the IC50 turned out to be 4 nM.

For the compound `CC(=O)Nc1cccc(O[C@H]2CO[C@H]3[C@@H]2OC[C@@H]3NC(=O)NC2CCCCC2)c1` [Example 102, N-{3-[(3S,3aS,6S,6aR)-6-(3-Cyclohexyl-ureido)-hexahydro-furo[3,2-b]furan-3-yloxy]-phenyl}-acetamide], the IC50 turned out to be 2 nM.

For `CC(C)(C)c1ccc(O[C@H]2CO[C@H]3[C@@H]2OC[C@@H]3NC(=O)NC2CCCCC2)cc1` [Example 103, 1-[(3S,3aR,6S,6aS)-6-(4-tert-Butyl-phenoxy)-hexahydro-furo[3,2-b]furan-3-yl]-3-cyclohexyl-urea], the IC50 turned out to be 7 nM.

In the case of `O=C(NC1CCCCC1)N[C@H]1CO[C@H]2[C@@H]1OC[C@@H]2Oc1cccc(-c2ccccc2)c1` [Example 104, 1-[(3S,3aR,6S,6aS)-6-(Biphenyl-3-yloxy)-hexahydro-furo[3,2-b]furan-3-yl]-3-cyclohexyl-urea], the IC50 was 5 nM.

On to `O=C(NC1CCCCC1)N[C@H]1CO[C@H]2[C@@H]1OC[C@@H]2Oc1ccc(-c2ccccc2)cc1` [Example 105, 1-[(3S,3aR,6S,6aS)-6-(Biphenyl-4-yloxy)-hexahydro-furo[3,2-b]furan-3-yl]-3-cyclohexyl-urea], for which the IC50 is 7 nM.

Consider `CC(=O)c1cccc(O[C@H]2CO[C@H]3[C@@H]2OC[C@@H]3NC(=O)NC2CCCCC2)c1` [Example 106, 1-[(3S,3aR,6S,6aS)-6-(3-Acetyl-phenoxy)-hexahydro-furo[3,2-b]furan-3-yl]-3-cyclohexyl-urea], for which the IC50 is 3 nM.

`O=C(NC1CCCCC1)N[C@H]1CO[C@H]2[C@@H]1OC[C@@H]2Oc1cccc(N2CCCC2=O)c1` [Example 107, 1-Cyclohexyl-3-{(3S,3aR,6S,6aS)-6-[3-(2-oxo-pyrrolidin-1-yl)-phenoxy]-hexahydro-furo[3,2-b]furan-3-yl}-urea]: the IC50 was 2 nM.

Turning to `O=C(NC1CCCCC1)N[C@H]1CO[C@H]2[C@@H]1OC[C@@H]2Oc1cccc(C2CCNCC2)c1` [Example 108, 1-Cyclohexyl-3-[(3S,3aR,6S,6aS)-6-(3-piperidin-4-yl-phenoxy)-hexahydro-furo[3,2-b]furan-3-yl]-urea; trifluoroacetate], the IC50 was 23 nM.

`O=C(NC1CCCCC1)N[C@H]1CO[C@H]2[C@@H]1OC[C@@H]2Oc1ccc(Oc2ccccn2)cc1` [Example 109, 1-Cyclohexyl-3-{(3S,3aR,6S,6aS)-6-[4-(pyridin-2-yloxy)-phenoxy]-hexa-hydro-furo[3,2-b]furan-3-yl}-urea]: the IC50 was 1 nM.

With `O=C(NC1CCCCC1)N[C@H]1CO[C@H]2[C@@H]1OC[C@@H]2Oc1ccccc1C(=O)N1CCCC1` [Example 110, 1-Cyclohexyl-3-{(3S,3aR,6S,6aS)-6-[2-(pyrrolidine-1-carbonyl)-phenoxy]-hexahydro-furo[3,2-b]furan-3-yl}-urea], the IC50 was 140 nM.

In the case of `COC(=O)c1cncc(O[C@H]2CO[C@H]3[C@@H]2OC[C@@H]3NC(=O)NC2CCCCC2)c1` [Example 111, 5-[(3S,3aS,6S,6aR)-6-(3-Cyclohexyl-ureido)-hexahydro-furo[3,2-b]furan-3-yloxy]-nicotinic acid methyl ester], the IC50 is 1 nM.

With `O=C(NC1CCCCC1)N[C@H]1CO[C@H]2[C@@H]1OC[C@@H]2Oc1ccc(-n2cncn2)cc1` [Example 112, 1-Cyclohexyl-3-[(3S,3aR,6S,6aS)-6-(4-[1,2,4]triazol-1-yl-phenoxy)-hexahydro-furo[3,2-b]furan-3-yl]-urea; trifluoroacetate], the IC50 amounted to 1 nM.

Consider `CC(=O)Nc1ccc(O[C@H]2CO[C@H]3[C@@H]2OC[C@@H]3NC(=O)NC2CCCCC2)cc1` [Example 113, N-{4-[(3S,3aS,6S,6aR)-6-(3-Cyclohexyl-ureido)-hexahydro-furo[3,2-b]furan-3-yloxy]-phenyl}-acetamide], for which the IC50 is 3 nM.

With `CC1(C)CC(=O)c2cc(O[C@H]3CO[C@H]4[C@@H]3OC[C@@H]4NC(=O)NC3CCCCC3)ccc2O1` [Example 114, 1-Cyclohexyl-3-[(3S,3aR,6S,6aS)-6-(2,2-dimethyl-4-oxo-chroman-6-yloxy)-hexahydro-furo[3,2-b]furan-3-yl]-urea], the IC50 is 4 nM.

Turning to `O=C(NC1CCCCC1)N[C@H]1CO[C@H]2[C@@H]1OC[C@@H]2Oc1ccccc1` [Example 115, 1-Cyclohexyl-3-((3S,3aR,6S,6aS)-6-phenoxy-hexahydro-furo[3,2-b]furan-3-yl)-urea], the IC50 was found to be 3 nM.

Turning to `CC(C)(C)Oc1ccc(O[C@H]2CO[C@H]3[C@@H]2OC[C@@H]3NC(=O)NC2CCCCC2)cc1` [Example 116, 1-[(3S,3aR,6S,6aS)-6-(4-tert-Butoxy-phenoxy)-hexahydro-furo[3,2-b]furan-3-yl]-3-cyclohexyl-urea], the IC50 was found to be 3 nM.

For the compound `N#CCc1cccc(O[C@H]2CO[C@H]3[C@@H]2OC[C@@H]3NC(=O)NC2CCCCC2)c1` [Example 117, 1-[(3S,3aR,6S,6aS)-6-(3-Cyano-methyl-phenoxy)-hexahydro-furo-[3,2-b]furan-3-yl]-3-cyclohexyl-urea], the IC50 turned out to be 5 nM.

For `O=C(NC1CCCCC1)N[C@H]1CO[C@H]2[C@@H]1OC[C@@H]2Oc1ccc2c(c1)C(=O)CC2` [Example 118, 1-Cyclohexyl-3-[(3S,3aR,6S,6aS)-6-(3-oxo-indan-5-yloxy)-hexahydro-furo[3,2-b]furan-3-yl]-urea], the IC50 turned out to be 3 nM.
